The source of these data is a melting point compilation (Tetko et al.).

The structures appear in SMILES notation.

For `NC(c1ccccc1)c1ccccc1`, the melting point came to 34 °C.

Consider `NNc1ccc(Cl)nn1`, for which the melting point stood at 137 °C.

Compound `NC(=O)N1CCCCC1` displayed a melting point of 105 °C.

Compound `COC(=O)C(Cl)C(C)=O` (centres undefined) registered a melting point of -33 °C.

As for `CC(CC(C(N)=O)(c1ccccc1)c1ccccn1)N(C)C` (centres undefined), the melting point worked out at 156 °C.

In turn, `Cc1nc(/C(C#N)=N/Nc2cccc(C(F)(F)F)c2)sc1/N=N/c1ccc(F)cc1` showed a melting point of 211 °C.

`O=C(O)c1c(F)cccc1C(F)(F)F`: the melting point lay in the range of 88 to 89 °C.

As to `O=[N+]([O-])/C=C/c1cccc(/C=C/[N+](=O)[O-])c1`, the melting point lay in the range of 203 to 204 °C.

The compound `Cc1c(Cl)c(=O)oc2cc(OP(=O)(OCCCl)OCCCl)ccc12` showed a melting point of 91 °C.

For `COc1cc(C/C(=N\O)C(=O)O)ccc1O`, the melting point stood at 139 °C.

With `O=[N+]([O-])c1cc(Cl)c(O)c(Cl)c1`, the melting point was determined as 127 °C.

Regarding `CCOc1cccc(/C=C/C(=O)O)c1`, the melting point was found to be 133 °C.

As for `CC(C)(C)OC(=O)NC(CO)C(=O)O` (centres undefined), the melting point turned out to be 90.5 °C.

For the compound `CC1=NN(c2ccc(C(=O)O)cc2)C(=O)C1`, the melting point was in the range of 284 to 288 °C.

For `COC(=O)C1=C(C)NC(C)=C(C(=O)On2nnc3ccccc32)[C@H]1c1ccc([N+](=O)[O-])cc1`, the melting point was 217 °C.

Regarding `COC(=O)c1ccc(C)c([N+](=O)[O-])c1`, the melting point was found to be 51 °C.

The compound `CC1=Cc2ccccc2C1O` (centres undefined) gave a melting point of 87 °C.

Regarding `O=C1C=CC(=O)N1c1ccc(-c2nc3ccccc3o2)cc1`, the melting point was 211 to 213 °C.

Take `CC(=O)Oc1ccccc1C(=O)Oc1ccccc1`: the melting point stood at 96 °C.

The compound `Brc1ccc2[nH]ncc2c1` displayed a melting point of 123 to 124 °C.

Take `CCOC(=O)c1ccc(-n2c(C)ccc2C)cc1`: the melting point is 88 to 90 °C.

Regarding `CC1(C)c2ccccc2NC1C(=O)O` (centres undefined), the melting point lay within 72 to 82 °C.

In the case of `FC(F)(F)N=C1SC(=Nc2ccccc2)N(c2ccccc2)C1=NC(F)(F)F`, the melting point stood at 118 °C.

Regarding `Cc1nn(C)c(Oc2ccccc2)c1C=NOCc1ccc(C(=O)OC(C)(C)C)cc1`, the melting point stood at 102 °C.

Consider `C#CCCCCCCCCCCCCC`, for which the melting point was 10 °C.

Compound `O=C(c1cccs1)c1noc(-c2ccc(Br)cc2)c1S(=O)(=O)c1ccccc1` yielded a melting point of 130 °C.

Compound `Cc1ccc(Cl)c(O)c1` gave a melting point of 46 °C.

`CCCCCCCCCF`: the melting point was 1 °C.

Regarding `Clc1cc(Br)ccn1`, the melting point is 19 °C.

Turning to `O=[N+]([O-])c1cc([N+](=O)[O-])c(Cl)c(C(F)(F)F)c1`, the melting point was found to be 63 °C.

`C(=Cc1ccc2ccc3ccccc3c2c1)c1ccc2ccccc2c1` yielded a melting point of 213 °C.

Take `COc1ccc2c(c1C)CC2C#N` (centres undefined): the melting point stood at 80 °C.

`CC(=O)Oc1ccc(C2(c3ccc(OC(C)=O)cc3)C(=O)Nc3ccccc32)cc1` came in with a melting point of 242 °C.

Regarding `CC(C)(C)OC(=O)C(C)(C)ON=C(C(=O)O)c1csc(N)n1`, the melting point amounted to 180 °C.

For the compound `CCc1occc(=O)c1O`, the melting point is 162 °C.

For `CC1(C)N[C@H](C(=O)O)Cc2c1[nH]c1ccccc21`, the melting point fell in the range of 227 to 228 °C.

`CC1=C(O)C(=O)C(C(C)C)CC1` (centres undefined) gave a melting point of 83 °C.

As for `CC/C=C/CCO`, the melting point was -61.5 °C.

`O=Cc1ccc2c(Br)cccc2c1` gave a melting point of 78 °C.

The compound `COc1ccc(CBr)cc1C(F)(F)F` returned a melting point of 77 °C.

Take `CCOC(=O)/C=C/c1ccc2ccc(=O)[nH]c2c1`: the melting point was 209 to 210 °C.

The compound `Nc1cc(C(F)(F)F)cc(Br)c1N` yielded a melting point of 60 to 62 °C.

Compound `Cc1ccc(C(O)c2ccccc2O)cc1` (centres undefined) yielded a melting point of 105 °C.

Regarding `Ic1ccc(Cn2cncn2)cc1`, the melting point was in the range of 82 to 84 °C.

`ClC=CCl` had a melting point of -80 °C.

In turn, `CCOC(=O)c1cnc2c(c(C)nn2C)c1Oc1ccc(F)cc1` yielded a melting point of 110 to 112 °C.

For the compound `O=C(Cl)c1ccc(Oc2ccccn2)cc1`, the melting point lay within 80 to 81 °C.

On to `c1ccc2c(c1)CCc1ccccc1CC2`, for which the melting point came to 109 °C.

`CCn1cc(C(=O)O)c(=O)c2ccc(-c3ccncc3)cc21` had a melting point of 290 °C.

`Fc1ccc(-n2cc[nH]c2=S)cc1` had a melting point of 207 to 209 °C.

The compound `OCC(O)CN1CCN(c2ccccc2)CC1` (centres undefined) gave a melting point of 105 °C.

For `COC(=O)C1=C(C(=O)OC)Cc2cc3c(cc2C1)CC3`, the melting point came out at 133 °C.

Compound `O=c1ccc([N+](=O)[O-])cn1Cc1ccccc1` returned a melting point of 96 °C.

`CC1CCCC(C)(C)C1` (centres undefined) registered a melting point of -65.7 °C.

On to `CCCCCCCCCc1ccc(OCCOCCO)cc1`, for which the melting point worked out at 43 °C.

`Cc1ccc(C)c(N/N=C(/C#N)c2nc3ccccc3c(=O)[nH]2)c1` gave a melting point of 205 °C.

As for `Cc1c(F)c(F)c(C(=O)O)c(F)c1F`, the melting point was found to be 174 °C.

For the compound `COc1cc2c(cc1OC)C(c1ccc(F)cc1)N(C(C)=O)CC2` (centres undefined), the melting point was in the range of 162 to 164 °C.

In turn, `CN1CCNCC1` came in with a melting point of -6 °C.

For the compound `C[C@@H]1C(=O)[C@H](C)[C@@H](c2ccc(Cl)cc2)O[C@H]1c1ccc(Cl)cc1`, the melting point worked out at 190 °C.

Compound `N#Cc1ccc(O)c(F)c1F` had a melting point of 147 °C.

As to `O=C1CCC(c2ccc(NC(=O)Nc3ccccc3)cc2)=NN1`, the melting point is 335 to 338 °C.

The compound `Cc1ccc(Oc2ccc(C)cc2)cc1` registered a melting point of 51 °C.

In turn, `O=C(O)Cc1ccc(Cl)c(Cl)c1` displayed a melting point of 90 °C.

With `COc1ccc2c(C(=O)c3ccc(Cl)cc3)c(C)n(CC(=O)O)c2c1`, the melting point worked out at 242 °C.

`N#Cc1cccc2ccsc12` registered a melting point of 67.5 to 72.5 °C.

Compound `CCCC=C1C(=O)C2(C)CCC1C2(C)C` (centres undefined) gave a melting point of 120 °C.

In the case of `O=Nc1ccc(O)c2ncccc12`, the melting point amounted to 245 °C.

The compound `O=C(Cl)c1cc(Br)cc2c1OCC2` came in with a melting point of 126 to 127 °C.

As for `CCC(C)C(N)P(=O)(O)O` (centres undefined), the melting point turned out to be 274 °C.

In turn, `O=NN1CCCC1c1cccnc1` (centres undefined) showed a melting point of 47 °C.

`N#CCc1cccc(Cl)c1Cl` came in with a melting point of 66 to 69 °C.

Regarding `Cc1csc2c(Cl)ncnc12`, the melting point was in the range of 124 to 125 °C.

As to `CC(=O)c1nn(-c2ccc(F)cc2)c(=N)s1`, the melting point worked out at 198 °C.

`c1ccc2c3c(ccc2c1)-c1cccc2cccc-3c12` gave a melting point of 166 °C.

Turning to `CC(C)(C)OC(=O)C(Cl)(Cl)Cl`, the melting point stood at 25.5 °C.

For the compound `Cc1c(C)c(C)c(S(=O)(=O)Cl)c(C)c1C`, the melting point amounted to 80 °C.

`C=COC(=O)CCCCCCCCCCCCCCCCC` came in with a melting point of 36 °C.

In the case of `O=C1C=C(NCc2cccnc2)C(=O)c2ccccc21`, the melting point came out at 209 °C.

For `Cn1cnc(C=O)c1`, the melting point is 68 to 69 °C.

The compound `O=C1CC(=O)N(c2ccccc2)N1` displayed a melting point of 191 °C.

The compound `CC(Cc1ccccc1)NC(C#N)c1ccccc1` (centres undefined) came in with a melting point of 85 °C.

Consider `C=C=Cn1cnc2c(N)ncnc21`, for which the melting point stood at 186 °C.

As to `COc1ccc(N/N=C(\C#N)c2nc(C)c(/N=N/c3ccccc3)s2)cc1`, the melting point was 178 °C.

On to `O=C(O)Cc1cccnc1`, for which the melting point is 144 °C.

`CC12CCC(=O)C=C1CCC1C2CCC2(C)C1CCC2(O)C(=O)CO` (centres undefined): the melting point is 215 °C.

In the case of `CC12CCC(O)CC1CCC1C2C(O)CC2(C)C(c3ccc(=O)oc3)CCC12O` (centres undefined), the melting point turned out to be 254 °C.

Regarding `CCOC(=O)c1[nH]c2ccccc2c1C`, the melting point fell in the range of 130 to 133 °C.

In the case of `C[C@H](OC(=O)Nc1ccccc1)C(=O)O`, the melting point lay in the range of 137 to 142 °C.

Turning to `Cc1oc(-c2ccccc2)nc1C=O`, the melting point is 87 to 88 °C.

Turning to `O=Cc1ccc(OCc2c(F)cccc2Cl)cc1`, the melting point fell in the range of 74 to 78 °C.

`CCCC#CCCCC(=O)O` had a melting point of -3 °C.

Consider `Nc1ccc(S(=O)(=O)Nc2cnc3ccccc3n2)cc1`, for which the melting point was 248 °C.

Take `Cc1ccccc1NC(=O)C(C)(C)C`: the melting point is 111 to 115 °C.

`Cc1ccc(N)c(Cl)c1` showed a melting point of 7 °C.

`O=C1C(=C2Nc3ccccc3C2=O)Nc2ccccc21` had a melting point of 300 °C.

Compound `Nc1cc(Br)cc2cc[nH]c12` displayed a melting point of 105 °C.

`CSc1ccc([N+](=O)[O-])cc1` gave a melting point of 65 to 68 °C.

In turn, `Ic1ccc(N2CCOCC2)cc1` showed a melting point of 131 to 132 °C.

The compound `CC(Br)C(=O)c1ccc(Br)cc1` (centres undefined) gave a melting point of 85 to 88 °C.

`O=C(Nc1cccc(C(F)(F)F)c1)Nc1nnc(-c2ccc(Cl)cc2)o1` gave a melting point of 236 to 238 °C.

`Cn1ncc(Br)c1NC(=O)CCl` returned a melting point of 137 to 139 °C.

`COc1ccccc1-n1[nH]cc2c(=O)ncnc1-2` yielded a melting point of 271 °C.

`O=C1CCCN1c1ccc([N+](=O)[O-])cc1` gave a melting point of 128 to 130 °C.

Consider `COC(=O)c1c(OC)c(OC)c(C(=O)OC)c(C(=O)OC)c1OC`, for which the melting point fell in the range of 52 to 55 °C.

The compound `OC(C1CCCCC1)(C1CCCCC1)C1CCCCC1` displayed a melting point of 94 to 96 °C.

Regarding `CC(C)(C)OC(=O)N1CCC(N)CC1`, the melting point was 46 °C.

On to `S=C=Nc1ccc(N=Nc2ccccc2)cc1`, for which the melting point came out at 97 °C.

In turn, `CCOC(=O)c1sc(Cl)nc1C` showed a melting point of 46 to 47 °C.

Turning to `Nc1cc(N)c(/C=C/c2ccccc2)cc1/C=C/c1ccccc1`, the melting point stood at 201 °C.

With `CC(C)(c1ccc(OCC2CO2)cc1)c1ccc(OCC2CO2)cc1` (centres undefined), the melting point came out at 10 °C.

`O=C1NCCN1CCO` showed a melting point of 49 °C.

With `COc1c(F)cc(CBr)cc1F`, the melting point came out at 41 °C.

In the case of `COC(=O)c1ccnc(N)c1`, the melting point is 147 °C.
